One experiment concerns the target T1, 글루카곤 수용체(GCGR) (Homo sapiens, UniProt P47871).
T1 construct: host or cells: CHO-K1
In words: Glucagon receptor activity, cAMP Hunter eXpress GCGR CHO-K1 GPCR assay. The experiment is classed as cell-based. As to conditions: CHO-K1 cells with human glucagon receptor; 30 min at 37℃; cAMP production.

In experiment [1] the test system is C57BL/6 마우스, high fat diet NAFLD model. In words: In vivo activity 1: NAFLD model, C57BL/6 mice on 60% high fat diet for about 24 weeks. As to conditions: 20 nmol/kg s.c. every second day for 2 weeks; also lower than liraglutide 100 nmol/kg daily. The arrangement: species or system mouse.
Experiment [2] concerns C57BL/6 마우스, high trans-fat diet NAFLD model. The experiment is described as follows: In vivo activity 2 and 3: NAFLD model, C57BL/6 mice on high trans-fat diet (40% fat, 20% fructose, 2% cholesterol) for about 16 weeks. As to conditions: 20 nmol/kg s.c. every third day for 4 weeks; also lower than liraglutide 53 nmol/kg daily. The arrangement: species or system mouse.
Experiment [3] has as its target GLP-1 수용체 (GLP-1 receptor) (Homo sapiens, UniProt P43220). As to conditions: read-out: GLP-1의 수용체 EC50; HEK293/CRE-Luc cells with human GLP-1 receptor; 4 h at 37℃; luciferase reporter for cAMP.

These results are taken from KR20210110252A, “폴리펩티드를 포함하는 비알코올성 지방간 질환의 예방 또는 치료용 약학 조성물” (㈜ 디앤디파마텍, priority 2019, dated 2021).

pEC50: −log10 of the molar value. Where no end group is shown, it is not given here. [ ]: non-standard residue; d: D form. Aib = CC(C)(N)C(=O)O

T1 sequence (P47871 26-477): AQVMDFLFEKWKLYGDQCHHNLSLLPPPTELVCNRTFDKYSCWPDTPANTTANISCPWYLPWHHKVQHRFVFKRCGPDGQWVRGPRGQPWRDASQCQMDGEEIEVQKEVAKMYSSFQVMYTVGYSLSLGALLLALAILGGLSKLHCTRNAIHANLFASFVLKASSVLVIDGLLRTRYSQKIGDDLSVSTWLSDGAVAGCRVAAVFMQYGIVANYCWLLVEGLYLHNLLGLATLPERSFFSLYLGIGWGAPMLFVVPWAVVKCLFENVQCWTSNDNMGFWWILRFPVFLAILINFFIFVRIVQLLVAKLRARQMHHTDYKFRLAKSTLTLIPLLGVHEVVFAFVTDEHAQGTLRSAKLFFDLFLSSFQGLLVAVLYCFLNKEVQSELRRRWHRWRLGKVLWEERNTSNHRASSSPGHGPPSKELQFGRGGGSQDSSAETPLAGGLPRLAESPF
GLP-1 수용체 (GLP-1 receptor), sequence (P43220 24-463): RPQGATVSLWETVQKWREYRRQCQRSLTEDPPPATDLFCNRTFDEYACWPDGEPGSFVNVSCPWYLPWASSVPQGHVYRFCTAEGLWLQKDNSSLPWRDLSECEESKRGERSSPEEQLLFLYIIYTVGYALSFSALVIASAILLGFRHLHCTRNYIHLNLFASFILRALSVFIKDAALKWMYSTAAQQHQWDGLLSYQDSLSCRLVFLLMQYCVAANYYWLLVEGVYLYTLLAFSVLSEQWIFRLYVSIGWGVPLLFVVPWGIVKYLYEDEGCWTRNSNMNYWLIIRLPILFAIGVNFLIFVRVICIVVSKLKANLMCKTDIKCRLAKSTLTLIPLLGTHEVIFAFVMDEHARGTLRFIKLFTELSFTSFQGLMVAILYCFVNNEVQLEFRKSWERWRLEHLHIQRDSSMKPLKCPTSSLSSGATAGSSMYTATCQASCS

The substance “실시예 2: 서열번호 2 H(Aib)QGTFTSDYSKYLDEQAAKEFVQWLMNTC polypeptide conjugated to 3중 가지형 mPEG-MAL(MW: 50 kDa) (H[Aib]QGTFTSDYSKYLDEQAAKEFVQWLMNTC; numbers in words are those of the source; also: conjugated to 3-branched mPEG-MAL 50 kDa, site not given here)” gave a pEC50 in the experiment with 글루카곤 수용체(GCGR) of 7.33. In experiment [1], the “Liver steatosis, H&E histology vs PBS-treated group (Fig. 5)” value is recorded as “현저하게 감소”; the “Liver weight vs PBS-treated group (Fig. 4)” value was “유의적으로 감소”; the “Serum cholesterol level vs PBS-treated group (Fig. 3)” value is given as “유의적으로 감소”. In experiment [2], the “Hepatic triglyceride vs vehicle group (Fig. 8)” value is recorded as “유의적으로 감소”; the “Liver steatosis, H&E and oil-red-O histology vs vehicle group (Fig. 9)” value is reported as “현저하게 감소”; the “Liver weight vs vehicle group (Fig. 7)” value was “유의적으로 감소”; the “NAFLD activity score (NAS) vs vehicle group (Fig. 10)” value is given as “유의적으로 감소”. The “Serum cholesterol level vs vehicle group (Fig. 6)” value in experiment [2] is given as “유의적으로 감소”. Moreover, the pEC50 in experiment [3] is 8.67.
